According to paper PMC11311870, “Catalytic Mode and Product Specificity of an α-Agarase Reveal Its Direct Catalysis for the Production of Agarooligosaccharides” (Foods, 2024):

Molecular target: T1, Cm-AGA (Catenovulum maritimum, UniProt A0A0J8H064)
T1 construct: gene XM47_01860
T1 sequence (A0A0J8H064 27-1466): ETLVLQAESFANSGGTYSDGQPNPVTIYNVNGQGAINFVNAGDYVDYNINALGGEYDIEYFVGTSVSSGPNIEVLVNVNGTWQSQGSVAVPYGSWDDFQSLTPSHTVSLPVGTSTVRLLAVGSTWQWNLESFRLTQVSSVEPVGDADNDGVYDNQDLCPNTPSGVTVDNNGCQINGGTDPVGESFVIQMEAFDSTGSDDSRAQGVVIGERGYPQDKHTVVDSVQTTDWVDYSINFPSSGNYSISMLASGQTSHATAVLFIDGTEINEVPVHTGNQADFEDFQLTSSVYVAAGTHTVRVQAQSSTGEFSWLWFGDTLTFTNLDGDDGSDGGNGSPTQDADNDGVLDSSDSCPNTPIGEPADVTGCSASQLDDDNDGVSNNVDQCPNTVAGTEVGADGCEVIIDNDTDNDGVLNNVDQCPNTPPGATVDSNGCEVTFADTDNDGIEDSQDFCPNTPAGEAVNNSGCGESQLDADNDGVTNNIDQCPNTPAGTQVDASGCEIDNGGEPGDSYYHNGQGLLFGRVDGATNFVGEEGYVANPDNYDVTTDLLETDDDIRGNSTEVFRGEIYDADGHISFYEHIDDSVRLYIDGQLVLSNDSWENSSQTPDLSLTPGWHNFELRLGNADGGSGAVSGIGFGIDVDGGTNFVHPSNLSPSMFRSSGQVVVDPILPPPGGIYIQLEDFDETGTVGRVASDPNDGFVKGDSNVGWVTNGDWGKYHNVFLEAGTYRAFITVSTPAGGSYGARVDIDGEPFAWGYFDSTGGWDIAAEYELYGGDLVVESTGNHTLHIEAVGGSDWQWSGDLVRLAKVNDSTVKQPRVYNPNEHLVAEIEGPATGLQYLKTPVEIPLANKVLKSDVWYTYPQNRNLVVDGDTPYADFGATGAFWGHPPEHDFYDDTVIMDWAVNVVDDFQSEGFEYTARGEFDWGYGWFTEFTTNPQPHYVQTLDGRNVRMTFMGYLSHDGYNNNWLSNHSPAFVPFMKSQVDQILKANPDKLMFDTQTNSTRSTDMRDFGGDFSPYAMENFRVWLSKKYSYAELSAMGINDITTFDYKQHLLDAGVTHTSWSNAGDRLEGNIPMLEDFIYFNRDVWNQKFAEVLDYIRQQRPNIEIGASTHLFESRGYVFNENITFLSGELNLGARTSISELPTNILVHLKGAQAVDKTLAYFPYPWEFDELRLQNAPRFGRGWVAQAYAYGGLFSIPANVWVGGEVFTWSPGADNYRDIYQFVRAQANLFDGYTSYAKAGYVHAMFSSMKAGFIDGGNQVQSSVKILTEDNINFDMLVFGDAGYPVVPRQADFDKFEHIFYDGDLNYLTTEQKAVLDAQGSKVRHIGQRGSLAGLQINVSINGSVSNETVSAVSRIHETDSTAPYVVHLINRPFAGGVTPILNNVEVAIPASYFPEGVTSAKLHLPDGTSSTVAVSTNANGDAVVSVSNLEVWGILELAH
Test: HPAEC-PAD product analysis
Format: biochemical
Conditions: pH not stated for this reaction (in water); 35 °C, 24 h; 5 mg/mL stock

In the case of `OC[C@H]1O[C@@H](O[C@H]2[C@H]3OC[C@@H]2O[C@@H](O[C@H]2[C@@H](O)[C@@H](CO)O[C@@H](O[C@H]4[C@H]5OC[C@@H]4O[C@@H](O[C@H]4[C@@H](O)[C@@H](CO)OC(O)[C@@H]4O)[C@H]5O)[C@@H]2O)[C@H]3O)[C@H](O)[C@@H](O[C@@H]2O[C@H]3CO[C@@H]([C@@H]2O)[C@@H]3O)[C@H]1O` (stereo partly shown) [NA6, neoagarohexaose], the HPAEC-PAD product analysis is reported as “the products of Cm-AGA-mediated NA6 hydrolysis were relatively complex (Figure 8D)”.
